What was measured:
Test in all cases: binding to VI16742 beads (HeLa lysate, SILAC MS)
[1] = target: T1, HGK/ZC1 (MAP4K4, IPI00604647) (Homo sapiens, UniProt O95819)
T1 construct: endogenous in cells; host or cells: HeLa S3
Method in brief: (§1)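 First, lysate proteins are exposed to beads bearing the pyrido[2,3-d]pyrimidine-based inhibitor. Next, specifically retained proteins are identified.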

[2] = target: T2, MAP2K2 (IPI00003783) (Homo sapiens, UniProt P36507)
T2 construct: endogenous in cells; host or cells: HeLa S3
Method in brief: as §1

[3] = target: T3, APRT (IPI00218693) (Homo sapiens, UniProt P07741)
T3 construct: endogenous in cells; host or cells: HeLa S3
T3 sequence (P07741 1-180): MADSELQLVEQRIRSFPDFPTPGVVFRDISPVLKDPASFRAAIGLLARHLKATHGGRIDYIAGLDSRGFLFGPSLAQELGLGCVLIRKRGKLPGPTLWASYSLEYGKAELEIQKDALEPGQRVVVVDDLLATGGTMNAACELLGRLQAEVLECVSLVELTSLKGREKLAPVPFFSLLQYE
Method in brief: as §1

[4] = target: T4, CSK (IPI00013212) (Homo sapiens, UniProt P41240)
T4 construct: endogenous in cells; host or cells: HeLa S3 cell lysate
Method in brief: as §1

[5] = target: T5, 2-PDE (IPI00174390) (Homo sapiens, UniProt Q6L8Q7)
T5 construct: endogenous in cells; host or cells: HeLa S3 cell lysate
T5 sequence (Q6L8Q7 43-609): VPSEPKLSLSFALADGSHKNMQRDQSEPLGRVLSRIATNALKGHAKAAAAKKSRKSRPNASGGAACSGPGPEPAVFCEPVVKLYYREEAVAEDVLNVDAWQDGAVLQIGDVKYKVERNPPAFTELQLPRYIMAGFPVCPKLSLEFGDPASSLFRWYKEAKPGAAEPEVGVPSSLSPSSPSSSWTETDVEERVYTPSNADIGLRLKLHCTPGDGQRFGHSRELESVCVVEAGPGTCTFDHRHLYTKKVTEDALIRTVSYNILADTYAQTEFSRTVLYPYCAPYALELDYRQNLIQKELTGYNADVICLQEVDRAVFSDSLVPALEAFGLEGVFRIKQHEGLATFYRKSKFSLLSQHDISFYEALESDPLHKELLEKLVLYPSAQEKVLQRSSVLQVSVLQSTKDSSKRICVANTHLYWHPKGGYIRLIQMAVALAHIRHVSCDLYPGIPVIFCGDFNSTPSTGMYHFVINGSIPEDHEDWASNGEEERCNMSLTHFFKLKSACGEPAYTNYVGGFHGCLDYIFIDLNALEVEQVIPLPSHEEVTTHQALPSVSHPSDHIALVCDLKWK
Method in brief: as §1

[6] = target: T6, ILK (IPI00013219) (Homo sapiens, UniProt Q13418)
T6 construct: endogenous in cells; host or cells: HeLa S3
T6 sequence (Q13418 1-452): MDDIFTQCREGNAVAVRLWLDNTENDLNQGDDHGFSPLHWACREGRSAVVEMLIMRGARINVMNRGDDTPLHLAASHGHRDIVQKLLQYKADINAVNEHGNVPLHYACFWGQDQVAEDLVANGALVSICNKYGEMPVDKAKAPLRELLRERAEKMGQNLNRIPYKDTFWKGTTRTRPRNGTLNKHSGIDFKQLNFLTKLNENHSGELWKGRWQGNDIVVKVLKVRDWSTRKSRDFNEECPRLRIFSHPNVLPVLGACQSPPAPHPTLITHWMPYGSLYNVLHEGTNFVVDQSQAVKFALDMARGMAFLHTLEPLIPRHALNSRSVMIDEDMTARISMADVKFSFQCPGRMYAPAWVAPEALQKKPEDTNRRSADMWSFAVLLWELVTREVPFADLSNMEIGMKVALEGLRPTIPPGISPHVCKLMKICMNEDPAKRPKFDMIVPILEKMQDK
Method in brief: as §1

[7] = target: T7, GLO1 (IPI00220766) (Homo sapiens, UniProt Q04760)
T7 construct: endogenous in cells; host or cells: HeLa S3
T7 sequence (Q04760 2-184 limits assumed): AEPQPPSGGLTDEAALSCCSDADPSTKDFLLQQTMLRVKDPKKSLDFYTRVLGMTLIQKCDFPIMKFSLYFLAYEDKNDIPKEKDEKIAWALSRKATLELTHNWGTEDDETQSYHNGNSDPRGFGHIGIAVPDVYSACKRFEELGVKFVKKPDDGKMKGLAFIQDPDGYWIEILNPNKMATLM
Method in brief: as §1

[8] = target: T8, BUB1 (IPI00783305) (Homo sapiens, UniProt O43683)
T8 construct: endogenous in cells; host or cells: HeLa S3
Method in brief: as §1

[9] = target: T9, PKN2 (IPI00002804) (Homo sapiens, UniProt Q16513)
T9 construct: endogenous in cells; host or cells: HeLa S3
Method in brief: as §1

[10] = target: p38a (MAPK14, IPI00221141) (Homo sapiens, UniProt Q16539)
Method in brief: as §1

[11] = control beads vs first incubation

T8 sequence (O43683 whole entry): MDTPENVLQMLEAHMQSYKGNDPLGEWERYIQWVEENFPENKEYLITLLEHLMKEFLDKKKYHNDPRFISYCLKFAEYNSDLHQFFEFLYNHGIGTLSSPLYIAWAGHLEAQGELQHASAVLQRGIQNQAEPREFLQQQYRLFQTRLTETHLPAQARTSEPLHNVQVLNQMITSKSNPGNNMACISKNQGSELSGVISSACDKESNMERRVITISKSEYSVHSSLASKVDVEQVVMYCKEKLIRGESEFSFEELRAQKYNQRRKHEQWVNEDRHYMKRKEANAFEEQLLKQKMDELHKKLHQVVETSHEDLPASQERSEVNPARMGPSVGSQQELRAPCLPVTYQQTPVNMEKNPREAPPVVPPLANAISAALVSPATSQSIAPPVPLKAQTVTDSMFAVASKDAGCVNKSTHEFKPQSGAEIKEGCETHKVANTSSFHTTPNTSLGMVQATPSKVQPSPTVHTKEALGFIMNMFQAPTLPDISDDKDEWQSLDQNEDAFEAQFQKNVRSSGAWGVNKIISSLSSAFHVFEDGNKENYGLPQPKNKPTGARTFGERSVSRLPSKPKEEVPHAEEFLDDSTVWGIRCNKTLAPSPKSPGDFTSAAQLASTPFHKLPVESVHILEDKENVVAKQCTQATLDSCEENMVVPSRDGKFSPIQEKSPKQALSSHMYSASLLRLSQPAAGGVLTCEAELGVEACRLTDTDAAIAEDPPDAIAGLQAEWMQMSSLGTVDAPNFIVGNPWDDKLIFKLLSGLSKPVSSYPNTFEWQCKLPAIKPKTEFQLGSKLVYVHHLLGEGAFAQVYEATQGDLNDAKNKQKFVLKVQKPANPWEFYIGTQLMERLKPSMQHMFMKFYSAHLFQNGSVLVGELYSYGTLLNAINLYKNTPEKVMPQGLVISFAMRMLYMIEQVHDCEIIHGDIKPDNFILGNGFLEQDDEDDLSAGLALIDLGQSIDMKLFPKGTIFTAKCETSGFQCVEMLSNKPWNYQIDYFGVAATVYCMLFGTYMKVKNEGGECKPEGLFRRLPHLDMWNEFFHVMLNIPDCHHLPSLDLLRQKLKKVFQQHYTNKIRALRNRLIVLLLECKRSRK
p38a (MAPK14, IPI00221141), sequence (Q16539 1-360 isoform Q16539-2): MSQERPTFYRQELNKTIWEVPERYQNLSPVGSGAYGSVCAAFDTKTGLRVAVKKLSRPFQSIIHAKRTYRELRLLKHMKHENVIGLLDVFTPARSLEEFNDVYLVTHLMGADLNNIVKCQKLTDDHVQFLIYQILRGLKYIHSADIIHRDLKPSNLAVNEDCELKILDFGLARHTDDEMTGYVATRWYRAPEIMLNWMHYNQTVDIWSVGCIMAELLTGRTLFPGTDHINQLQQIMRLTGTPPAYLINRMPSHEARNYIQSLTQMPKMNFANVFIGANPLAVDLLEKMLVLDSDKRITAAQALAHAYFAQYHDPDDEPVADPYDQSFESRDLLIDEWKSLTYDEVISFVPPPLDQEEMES
T2 sequence (P36507 whole entry): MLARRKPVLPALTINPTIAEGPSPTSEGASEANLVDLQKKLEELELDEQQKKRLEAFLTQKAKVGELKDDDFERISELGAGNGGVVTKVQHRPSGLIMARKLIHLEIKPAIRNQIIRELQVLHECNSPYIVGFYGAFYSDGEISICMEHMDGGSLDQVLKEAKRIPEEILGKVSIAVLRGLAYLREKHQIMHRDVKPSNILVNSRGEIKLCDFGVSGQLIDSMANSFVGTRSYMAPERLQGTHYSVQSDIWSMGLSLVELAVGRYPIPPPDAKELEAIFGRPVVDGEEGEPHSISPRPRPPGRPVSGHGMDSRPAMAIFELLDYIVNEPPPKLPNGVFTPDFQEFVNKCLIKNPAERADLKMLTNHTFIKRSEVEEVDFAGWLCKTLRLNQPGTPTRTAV
T4 sequence (P41240 whole entry): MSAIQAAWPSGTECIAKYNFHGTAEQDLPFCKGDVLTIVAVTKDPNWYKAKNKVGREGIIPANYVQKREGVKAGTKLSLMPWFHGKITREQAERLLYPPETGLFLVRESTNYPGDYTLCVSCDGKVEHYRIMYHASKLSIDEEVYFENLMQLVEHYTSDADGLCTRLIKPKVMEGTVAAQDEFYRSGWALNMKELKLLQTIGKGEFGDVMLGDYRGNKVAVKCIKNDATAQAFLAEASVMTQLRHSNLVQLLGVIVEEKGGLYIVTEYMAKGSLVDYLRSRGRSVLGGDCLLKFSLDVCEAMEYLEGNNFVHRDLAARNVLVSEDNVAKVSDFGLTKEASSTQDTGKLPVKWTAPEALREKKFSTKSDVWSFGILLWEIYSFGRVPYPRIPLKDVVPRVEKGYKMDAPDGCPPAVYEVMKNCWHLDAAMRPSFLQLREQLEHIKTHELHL
T9 sequence (Q16513 whole entry): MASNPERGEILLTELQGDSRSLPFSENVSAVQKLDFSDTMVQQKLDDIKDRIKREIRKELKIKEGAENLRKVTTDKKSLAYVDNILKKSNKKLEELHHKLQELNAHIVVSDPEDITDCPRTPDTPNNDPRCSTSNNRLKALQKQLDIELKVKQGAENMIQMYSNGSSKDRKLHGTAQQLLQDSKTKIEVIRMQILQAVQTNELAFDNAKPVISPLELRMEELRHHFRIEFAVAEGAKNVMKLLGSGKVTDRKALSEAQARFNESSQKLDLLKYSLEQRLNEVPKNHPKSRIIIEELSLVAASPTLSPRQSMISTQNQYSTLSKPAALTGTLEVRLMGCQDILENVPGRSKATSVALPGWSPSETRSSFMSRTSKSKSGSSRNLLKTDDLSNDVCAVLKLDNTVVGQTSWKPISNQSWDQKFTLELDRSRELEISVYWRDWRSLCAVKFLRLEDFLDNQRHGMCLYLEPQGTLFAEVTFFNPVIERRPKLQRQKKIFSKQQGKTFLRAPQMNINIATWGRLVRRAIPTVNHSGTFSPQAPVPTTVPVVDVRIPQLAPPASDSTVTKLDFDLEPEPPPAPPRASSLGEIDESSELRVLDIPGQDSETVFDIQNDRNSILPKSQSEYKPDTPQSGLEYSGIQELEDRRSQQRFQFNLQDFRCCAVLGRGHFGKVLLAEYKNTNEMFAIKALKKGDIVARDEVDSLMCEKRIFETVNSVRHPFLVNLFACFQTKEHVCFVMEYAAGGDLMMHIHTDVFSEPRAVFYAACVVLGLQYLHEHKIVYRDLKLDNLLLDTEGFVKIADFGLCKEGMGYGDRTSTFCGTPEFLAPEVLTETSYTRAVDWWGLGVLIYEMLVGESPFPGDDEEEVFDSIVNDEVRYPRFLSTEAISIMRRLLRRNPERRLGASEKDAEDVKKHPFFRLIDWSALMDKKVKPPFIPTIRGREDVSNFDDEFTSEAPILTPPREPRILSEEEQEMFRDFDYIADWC
T1 sequence (O95819 whole entry): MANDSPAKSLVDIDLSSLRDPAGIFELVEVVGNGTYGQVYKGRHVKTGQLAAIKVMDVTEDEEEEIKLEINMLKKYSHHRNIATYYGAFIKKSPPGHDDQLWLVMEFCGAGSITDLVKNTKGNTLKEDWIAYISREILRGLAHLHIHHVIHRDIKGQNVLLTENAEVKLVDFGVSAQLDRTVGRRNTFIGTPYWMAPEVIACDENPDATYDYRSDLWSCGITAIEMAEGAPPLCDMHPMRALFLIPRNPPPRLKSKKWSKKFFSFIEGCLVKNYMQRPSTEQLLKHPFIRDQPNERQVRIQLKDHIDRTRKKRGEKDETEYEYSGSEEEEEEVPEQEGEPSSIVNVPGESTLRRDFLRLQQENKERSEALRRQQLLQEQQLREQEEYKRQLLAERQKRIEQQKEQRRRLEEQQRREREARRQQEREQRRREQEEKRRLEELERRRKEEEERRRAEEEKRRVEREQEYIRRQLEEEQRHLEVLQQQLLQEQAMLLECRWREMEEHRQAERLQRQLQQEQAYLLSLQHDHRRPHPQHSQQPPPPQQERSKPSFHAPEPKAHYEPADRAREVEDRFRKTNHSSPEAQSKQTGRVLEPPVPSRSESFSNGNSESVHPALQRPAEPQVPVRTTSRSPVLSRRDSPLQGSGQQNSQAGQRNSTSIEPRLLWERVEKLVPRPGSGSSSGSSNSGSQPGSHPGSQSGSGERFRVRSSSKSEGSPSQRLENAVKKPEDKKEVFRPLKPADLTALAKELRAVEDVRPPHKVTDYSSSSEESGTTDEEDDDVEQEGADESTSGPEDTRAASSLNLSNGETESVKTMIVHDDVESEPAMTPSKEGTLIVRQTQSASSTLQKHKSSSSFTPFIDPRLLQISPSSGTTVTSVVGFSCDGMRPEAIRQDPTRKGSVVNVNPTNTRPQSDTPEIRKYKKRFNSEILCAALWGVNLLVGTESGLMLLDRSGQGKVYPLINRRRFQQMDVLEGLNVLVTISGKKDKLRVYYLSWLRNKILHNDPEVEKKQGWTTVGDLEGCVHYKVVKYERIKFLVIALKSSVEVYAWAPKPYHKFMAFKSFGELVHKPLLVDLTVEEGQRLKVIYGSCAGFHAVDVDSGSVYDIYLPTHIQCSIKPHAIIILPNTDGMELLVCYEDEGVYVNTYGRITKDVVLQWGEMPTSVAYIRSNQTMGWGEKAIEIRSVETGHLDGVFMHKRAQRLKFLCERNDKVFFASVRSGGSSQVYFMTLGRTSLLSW

## CC(C)n1c(=O)ccc2cnc(Nc3ccc(OCCN)cc3)nc21 [V16742]
[1]; [11]
  rAVERAGE (CTRL/1 INC): 0.05
[1]; immobilized VI16742
  Ki: 75.7 µM
[1]; second vs first incubation
  rAVERAGE (2 INC/1 INC): 0.59
[2]; 5 h vs 2.5 h incubation time
  r (5 h/2.5 h INC. TIME): 2.03
[2]; [11]
  rAVERAGE (CTRL/1 INC): 0.03
[2]; immobilized VI16742
  Ki: 177 µM
[2]; second vs first incubation
  rAVERAGE (2 INC/1 INC): 0.77
[3]; 3 mg vs 1 mg lysate
  r (3 MG/1 MG LYSATE): 1.04
[3]; 5 h vs 2.5 h incubation time
  r (5 h/2.5 h INC. TIME): 1.40
[3]; [11]
  rAVERAGE (CTRL/1 INC): 0.05
[3]; immobilized VI16742
  Ki: 223 µM
[3]; second vs first incubation
  rAVERAGE (2 INC/1 INC): 0.81
[4]; 5 h vs 2.5 h incubation time
  r (5 h/2.5 h INC. TIME): 1.51
[4]; [11]
  rAVERAGE (CTRL/1 INC): 0.02
[4]; immobilized VI16742
  Ki: 79.5 µM
[4]; second vs first incubation
  rAVERAGE (2 INC/1 INC): 0.60
[5]; [11]
  rAVERAGE (CTRL/1 INC): 0.03
[5]; immobilized VI16742
  Ki: 100 µM
[5]; second vs first incubation
  rAVERAGE (2 INC/1 INC): 0.66
[6]; 5 h vs 2.5 h incubation time
  r (5 h/2.5 h INC. TIME): 1.47
[6]; [11]
  rAVERAGE (CTRL/1 INC): 0.03
[6]; immobilized VI16742
  Ki: 172 µM
[6]; second vs first incubation
  rAVERAGE (2 INC/1 INC): 0.77
[7]; 5 h vs 2.5 h incubation time
  r (5 h/2.5 h INC. TIME): 1.39
[7]; [11]
  rAVERAGE (CTRL/1 INC): 0.07
[7]; immobilized VI16742
  Ki: 133 µM
[7]; second vs first incubation
  rAVERAGE (2 INC/1 INC): 0.72
[8]; [11]
  rAVERAGE (CTRL/1 INC): 0.05
[8]; immobilized VI16742
  Ki: 161 µM
[8]; second vs first incubation
  rAVERAGE (2 INC/1 INC): 0.76
[9]; 3 mg vs 1 mg lysate
  r (3 MG/1 MG LYSATE): 2.87
[9]; 5 h vs 2.5 h incubation time
  r (5 h/2.5 h INC. TIME): 1.35
[9]; [11]
  rAVERAGE (CTRL/1 INC): 0.03
[9]; immobilized VI16742
  Ki: 115 µM
[9]; second vs first incubation
  rAVERAGE (2 INC/1 INC): 0.69
[10]; 5 h vs 2.5 h incubation time
  r (5 h/2.5 h INC. TIME): 2.16
[10]; [11]
  rAVERAGE (CTRL/1 INC): 0.10
[10]; immobilized VI16742
  Ki: 92.8 µM
[10]; second vs first incubation
  rAVERAGE (2 INC/1 INC): 0.64
